Patent publication US20240156999A1, “MULTIMERIC CHELATOR COMPOUNDS FOR USE IN TARGETED RADIOTHERAPY” (Bayer Aktiengesellschaft, priority 2021, published 2024)

Experiments:
[1] = Radiochemical purity (RCP) by iTLC after radiolabeling with Ac-225; assay type: physicochemical; conditions: labelling concentration 0.02 mM
Method: (§1) Aliquots of Ac-225 in 0.04 M HCl or Ra-223 in 0.05 M HCl were withdrawn into Eppendorf tubes. The radioactivity in each tube was measured by HPGe detector. Solutions of compounds in 0.1 M sodium acetate, pH 5-5.5 (with additional 0.1 M NaCl for ACC solutions) were added to the tubes. RAC was in the range of 1-5 M Bq/mL and specific activity in the range of 2-200 kBq/nmol. The labelling solutions were left for 60-90 min at room temperature.
(§2) Radiochemical purity (RCP) of the labeled compounds was determined by iTLC. iTLC strips were cut from silica impregnated chromatography paper, approx. 1 cm wide and 11 cm long. The strips were marked with a pen at 1 cm (application point), 4 cm (cut line for ACCs) or 5 cm (cut line for chelators) and 8 cm (front line). A beaker was filled up to 0.5 cm with 0.1 M citrate in 0.9% NaCl, pH 5.5. 1-10 μL of the radiolabeled compound was added to the application point and the strips immediately placed vertically in the beaker. The strips were removed when the solvent front reached the front line and then cut in two sections at the cut line. Each section was measured using a HPGe detector (ORTEC) to determine the radioactivity origin from the nuclide of interest. The RCP, in percentage, forthe nuclide of interest was calculated using the following equation: […]

[2] = Radiochemical purity (RCP) by iTLC after radiolabeling with Ra-223; assay type: physicochemical; conditions: for labelling efficiency with radium-223: compared to monomeric macropa, at 0.1 and 0.02 mM, as low as 0.005 mM for Oct2; for RCP Ra-223: iTLC
Method: as §1, §2

[3] = cited from earlier work
[4] = Radio-HPLC analysis of Ra-223 labelled compound with peak fractioning; assay type: physicochemical
Method: Radiolabeled compounds were analyzed by radio-HPLC using either a) Vanquish HPLC system (Thermo) equipped with a diode array detector and a Flowstar LB 514 radio detector (Berthold technologies); or b) an 1290 Infinity-II HPLC system (Agilent) equipped with a diode array detector and flow-count radio detector (Eckert & Ziegler).
Labelled chelator compounds were eluted using A=40 mM TRIS/6 mM citrate/2 mM EDTA and B=ACN/MeOH (8:2); aKinetexC18 (30×2.1 mm), 1.7 μm, 100 Å, Phenomenex); gradient 5-50% B for 10 min; flow rate of 0.3 mL/min or a Discovery RP amide c16 (150×2.1mm), 5 um, 100 Å, Gradient: 5-50% B for 12.5 min; flow rate of 0.6 mL/min.
Radio-HPLC peak fractioning was performed to determine the radionuclide(s) associated to each radio peak. The collected peak fractions were analysed using an HPGe detector.

[5] = labelling concentration 0.02 mM
[6] = labelling concentration 0.005 mM
[7] = labelling concentration 0.27 mM

Structure (SMILES)	RCP Ac-225 [1] [%]	labelling efficiency with radium-223 [2]	RCP Ra-223 [2, 5] [%]	RCP Ra-223 [2, 6] [%]	also measured
Nc1cc(CN2CCOCCOCCN(Cc3cccc(C(=O)O)n3)CCOCCOCC2)nc(C(=O)O)c1 [Macropa-NH2, reference compound]	99	–	–	–	RCP Ra-223 ([2]; labelling concentration 0.1 mM): 2%; RCP Ra-223 [2, 7]: 12%
O=C(CCc1cc(CN2CCOCCOCCN(Cc3cccc(C(=O)O)n3)CCOCCOCC2)nc(C(=O)O)c1)NCCCC[C@H](NC(=O)CCc1cc(CN2CCOCCOCCN(Cc3cccc(C(=O)O)n3)CCOCCOCC2)nc(C(=O)O)c1)C(=O)NCCN(CCCN(CCNC(=O)[C@H](CCCCNC(=O)CCc1cc(CN2CCOCCOCCN(Cc3cccc(C(=O)O)n3)CCOCCOCC2)nc(C(=O)O)c1)NC(=O)CCc1cc(CN2CCOCCOCCN(Cc3cccc(C(=O)O)n3)CCOCCOCC2)nc(C(=O)O)c1)CCNC(=O)[C@H](CCCCNC(=O)CCc1cc(CN2CCOCCOCCN(Cc3cccc(C(=O)O)n3)CCOCCOCC2)nc(C(=O)O)c1)NC(=O)CCc1cc(CN2CCOCCOCCN(Cc3cccc(C(=O)O)n3)CCOCCOCC2)nc(C(=O)O)c1)CCNC(=O)[C@H](CCCCNC(=O)CCc1cc(CN2CCOCCOCCN(Cc3cccc(C(=O)O)n3)CCOCCOCC2)nc(C(=O)O)c1)NC(=O)CCc1cc(CN2CCOCCOCCN(Cc3cccc(C(=O)O)n3)CCOCCOCC2)nc(C(=O)O)c1 [Oct2]	–	high labelling efficiency	–	64	–
COC(=O)c1cccc(CN2CCOCCOCCN(Cc3cc(NC(=O)COCC(=O)NCCN(CCCN(CCNC(=O)COCC(=O)Nc4cc(CN5CCOCCOCCN(Cc6cccc(C(=O)OC)n6)CCOCCOCC5)nc(C(=O)OC)c4)CCNC(=O)COCC(=O)Nc4cc(CN5CCOCCOCCN(Cc6cccc(C(=O)OC)n6)CCOCCOCC5)nc(C(=O)OC)c4)CCNC(=O)COCC(=O)Nc4cc(CN5CCOCCOCCN(Cc6cccc(C(=O)OC)n6)CCOCCOCC5)nc(C(=O)OC)c4)cc(C(=O)OC)n3)CCOCCOCC2)n1 [Tet1]	99	high labelling efficiency	95	–	labeling of solution with Ra-223 ([4]; 0.02 mM solution): efficient labeling; wash through of free radioactivity in the void volume ([4]; radio HPLC, Ra-223 labelled): almost no wash through of free radioactivity
O=C(COCC(=O)Nc1cc(CN2CCOCCOCCN(Cc3cccc(C(=O)O)n3)CCOCCOCC2)nc(C(=O)O)c1)NCCN(CCCN(CCNC(=O)COCC(=O)Nc1cc(CN2CCOCCOCCN(Cc3cccc(C(=O)O)n3)CCOCCOCC2)nc(C(=O)O)c1)CCNC(=O)COCC(=O)Nc1cc(CN2CCOCCOCCN(Cc3cccc(C(=O)O)n3)CCOCCOCC2)nc(C(=O)O)c1)CCNC(=O)COCC(=O)Nc1cc(CN2CCOCCOCCN(Cc3cccc(C(=O)O)n3)CCOCCOCC2)nc(C(=O)O)c1 [Tet2, 4,4′-[(9,13-bis{2-[2-(2-{[2-carboxy-6-({16-[(6-carboxypyridin-2-yl)methyl]-1,4,10,13-tetraoxa-7,16-diazacyclooctadecan-7-yl}methyl)pyridin-4-yl]amino}-2-oxoethoxy)acetamido]ethyl}-1,5,17,21-tetraoxo-3,19-dioxa-6,9,13,16-tetraazahenicosane-1,21-diyl)diimino]bis[6-({16-[(6-carboxypyridin-2-yl)methyl]-1,4,10,13-tetraoxa-7,16-diazacyclooctadecan-7-yl}methyl)pyridine-2-carboxylic acid]]	–	high labelling efficiency	74	–	–
O=C(CCc1cc(CN2CCOCCOCCN(Cc3cccc(C(=O)O)n3)CCOCCOCC2)nc(C(=O)O)c1)NCCN(CCCN(CCNC(=O)CCc1cc(CN2CCOCCOCCN(Cc3cccc(C(=O)O)n3)CCOCCOCC2)nc(C(=O)O)c1)CCNC(=O)CCc1cc(CN2CCOCCOCCN(Cc3cccc(C(=O)O)n3)CCOCCOCC2)nc(C(=O)O)c1)CCNC(=O)CCc1cc(CN2CCOCCOCCN(Cc3cccc(C(=O)O)n3)CCOCCOCC2)nc(C(=O)O)c1 [Tet5, 4,4′-[7,11-bis(2-{3-[2-carboxy-6-({16-[(6-carboxypyridin-2-yl)methyl]-1,4,10,13-tetraoxa-7,16-diazacyclooctadecan-7-yl}methyl)pyridin-4-yl]propanamido}ethyl)-3,15-dioxo-4,7,11,14-tetraazaheptadecane-1,17-diyl]bis[6-({16-[(6-carboxypyridin-2-yl)methyl]-1,4,10,13-tetraoxa-7,16-diazacyclooctadecan-7-yl}methyl)pyridine-2-carboxylic acid]]	–	high labelling efficiency	95	36	–

The next lines start with results.

RCP Ac-225 [1] [%]	labelling efficiency with radium-223 [2]	RCP Ra-223 [2, 5] [%]	RCP Ra-223 [2, 6] [%]	Structure (SMILES)	also measured
100	high labelling efficiency	80	–	COC(=O)c1cccc(CN2CCOCCOCCN(Cc3cc(NC(=O)COCC(=O)NCCN(CCN)CCCN(CCN)CCNC(=O)COCC(=O)Nc4cc(CN5CCOCCOCCN(Cc6cccc(C(=O)OC)n6)CCOCCOCC5)nc(C(=O)OC)c4)cc(C(=O)OC)n3)CCOCCOCC2)n1 [Dim1, Dimethyl 4,4′-{[9,13-bis(2-aminoethyl)-1,5,17,21-tetraoxo-3,19-dioxa-6,9,13,16-tetraazahenicosane-1,21-diyl]diimino}bis{6-[(16-{[6-(methoxycarbonyl)pyridin-2-yl]methyl}-1,4,10,13-tetraoxa-7,16-diazacyclooctadecan-7-yl)methyl]pyridine-2-carboxylate}]	–
100	–	–	–	O=C(O)c1cccc(CN2CCOCCOCCN(Cc3cccc(CN4CCOCCOCCN(Cc5cccc(C(=O)O)n5)CCOCCOCC4)n3)CCOCCOCC2)n1 [Dim2, 6,6′-[pyridine-2,6-diylbis(methylene-1,4,10,13-tetraoxa-7,16-diazacyclooctadecane-16,7-diylmethylene)]dipyridine-2-carboxylic acid]	RCP Ra-223 ([2]; labelling concentration 0.2 mM): 11%
100	–	–	–	O=C(O)c1cccc(CN2CCOCCOCCN(Cc3cccc(C(=O)NCCCC[C@@H](NC(=O)c4cccc(CN5CCOCCOCCN(Cc6cccc(C(=O)O)n6)CCOCCOCC5)n4)C(=O)O)n3)CCOCCOCC2)n1 [Dim3, 6-[[16-[[6-[[(5R)-5-carboxy-5-[[6-[[16-[(6-carboxy-2-pyridyl)methyl]-1,4,10,13-tetraoxa-7,16-diazacyclooctadec-7-yl]methyl]pyridine-2-carbonyl]amino]pentyl]carbamoyl]-2-pyridyl]methyl]-1,4,10,13-tetraoxa-7,16-diazacyclooctadec-7-yl]methyl]pyridine-2-carboxylic acid]	RCP Ra-223 ([2]; labelling concentration 0.2 mM): 32%
100	–	–	8	O=C(O)c1cccc(CN2CCOCCOCCN(Cc3cccc(C(=O)O)n3)CCOCCOCC2)n1 [Macropa, 6,6′-[1,4,10,13-tetraoxa-7,16-diazacyclooctadecane-7,16-diylbis(methylene)]dipyridine-2-carboxylic acid, reference compound]	selectivity for large over small alkaline earth metals [3]: excellent selectivity; affinity for Ba2+ ([3]; pH 7.4): highest affinity; complexation of radium-223 ([2]; at 0.1, 0.02 and 0.005 mM concentrations): no complexation of radium-223 was observed; RCP Ra-223 [2, 7]: 12%
–	high labelling efficiency	89	–	COC(=O)c1cccc(CN2CCOCCOCCN(Cc3cc(NC(=O)COCC(=O)NCCN(CCN)CCCN(CCNC(=O)COCC(=O)Nc4cc(CN5CCOCCOCCN(Cc6cccc(C(=O)OC)n6)CCOCCOCC5)nc(C(=O)OC)c4)CCNC(=O)COCC(=O)Nc4cc(CN5CCOCCOCCN(Cc6cccc(C(=O)OC)n6)CCOCCOCC5)nc(C(=O)OC)c4)cc(C(=O)OC)n3)CCOCCOCC2)n1 [Tri1]	–
